Target: albumin (Homo sapiens, UniProt P02768)
Experiment: Binding affinity to human plasma albumin by ultracentrifugation
Format: cell-free
Settings: read-out: PB (converted)

albumin, sequence (P02768 whole entry): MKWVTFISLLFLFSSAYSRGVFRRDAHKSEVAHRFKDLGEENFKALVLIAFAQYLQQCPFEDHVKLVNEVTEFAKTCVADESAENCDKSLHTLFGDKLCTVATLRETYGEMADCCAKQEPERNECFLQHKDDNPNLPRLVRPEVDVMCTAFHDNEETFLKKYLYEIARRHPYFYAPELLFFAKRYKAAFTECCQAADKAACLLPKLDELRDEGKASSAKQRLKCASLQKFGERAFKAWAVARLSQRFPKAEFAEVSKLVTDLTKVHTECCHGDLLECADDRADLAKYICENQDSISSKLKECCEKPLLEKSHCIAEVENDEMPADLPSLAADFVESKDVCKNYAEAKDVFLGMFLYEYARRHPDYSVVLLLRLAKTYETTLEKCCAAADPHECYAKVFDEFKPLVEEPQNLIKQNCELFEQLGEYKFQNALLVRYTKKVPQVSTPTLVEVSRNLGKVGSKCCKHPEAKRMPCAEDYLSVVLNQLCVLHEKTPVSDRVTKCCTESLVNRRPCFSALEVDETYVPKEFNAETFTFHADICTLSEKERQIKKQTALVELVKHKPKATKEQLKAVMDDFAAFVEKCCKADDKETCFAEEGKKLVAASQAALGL

fraction unbound: 0.622
SMILES: Cn1c(=O)c2c(ncn2C)n(C)c1=O [CAFFEINE]

Source: ChEMBL document CHEMBL1137733, “Studies on the interaction of caffeine with bovine hemoglobin” (Eur J Med Chem, 2009)
